Counter-ions that a name gives are not always drawn.
Columns and labels:
[1] = system: SARS-CoV-2; test: Antiviral activity against SARS-CoV-2 WA1 infected in human A549-hACE2-TMPRSS2 cells assessed as reduction in viral replication; format: functional, organism-based; conditions: Severe acute respiratory syndrome coronavirus 2, WA1, A549-hACE2-TMPRSS2
[2] = system: SARS-CoV-2; format: functional, organism-based; conditions: Severe acute respiratory syndrome coronavirus 2, Vero C1008, 64 h
[3] = biological target: T1, Replicase polyprotein 1ab (Severe acute respiratory syndrome coronavirus 2, UniProt P0DTD1); test: Inhibition of GST-tagged SARS-CoV-2 Main protease expressed in Escherichia coli BL21 using Dabcyl-Val-Asn-Ser-Thr-Leu-Gln-Ser-Gly-Leu-Arg-Lys-EDANS as fluorogenic substrate preincubated for 10 mins followed by substrate addition and measured after 1 hrs by FRET assay
[4] = biological target: Replicase polyprotein 1ab (Severe acute respiratory syndrome-related coronavirus, UniProt P0C6X7); test: Inhibition of recombinant SARS-CoV-1 Main protease
[5] = biological target: T1, Replicase polyprotein 1ab; test: Binding affinity to N-terminal full length SARS-CoV-2 Main protease assessed as inhibition constant
[6] = system: SARS-CoV-2; format: functional, organism-based; conditions: Severe acute respiratory syndrome coronavirus 2, Vero C1008
[7] = biological target: T1, Replicase polyprotein 1ab; test: Inhibition of C-terminal GST-tagged SARS-CoV-2 Main protease by using MCA-AVLQSGFR(Dnp)-Lys-NH2 as fluorogenic substrate incubated for 15 mins followed by substrate addition by spectrophotometric analysis
[8] = Inhibition of MERS-CoV Main protease; parameters: species or system Middle East respiratory syndrome-related coronavirus
[9] = Clearance in CD1 mouse at 5 mg/kg, ip; format: ADME, organism-based; conditions: in vivo
[10] = system: SARS-CoV-2; format: functional, organism-based; conditions: Severe acute respiratory syndrome coronavirus 2, 2019BetaCoV/Wuhan/WIV04/2019, Vero C1008, 48 h
[11] = biological target: T1, Replicase polyprotein 1ab; test: Inhibition of N-terminal 6His-tagges SARS-CoV-2 PLpro Wuhan (1524 to 1883 residues) expressed in Escherichia coli BL21(DE3) using Arg-Leu-Arg-Gly-Gly-AMC as substrate preincubated for 5 mins followed by substrate addition measured after 6 mins by fluorescence based assay
[12] = biological target: T1, Replicase polyprotein 1ab; test: Inhibition of SARS-CoV-2 3CL protease by FRET assay
[13] = system: SARS-CoV-2; test: Antiviral activity against SARS-CoV-2 infected in human Calu-3 cells assessed as reduction in viral growth; format: functional, organism-based; conditions: Severe acute respiratory syndrome coronavirus 2, Calu-3
[14] = biological target: T1, Replicase polyprotein 1ab; test: Inhibition of N-terminal GST-tagged SARS-CoV-2 Main protease expressed in Escherichia coli BL21 (DE3) using DABCYL-KTSAVLQSGFRKME-EDANS as fluorogenic substrate preincubated for 10 mins followed by compound addition and measured after 1 hr by FRET assay
[15] = Half life in Sprague-Dawley rat at 20 mg/kg, po by LC-MS/MS analysis; format: ADME, organism-based; conditions: in vivo
[16] = Clearance in Sprague-Dawley rat at 20 mg/kg, iv by LC-MS/MS analysis; format: ADME, organism-based; conditions: in vivo
[17] = Oral bioavailability in Sprague-Dawley rat at 20 mg/kg by LC-MS/MS analysis; format: ADME, organism-based; conditions: in vivo
[18] = biological target: T1, Replicase polyprotein 1ab; test: Inhibition of N-terminal 6his/TEV-fused GST tagged full length SARS-CoV-2 Main protease expressed in Escherichia coli BL21 (DE3) by chromatography method
[19] = biological target: T1, Replicase polyprotein 1ab; test: Inhibition of C-terminal SARS-CoV-2 Main protease expressed in Escherichia coli using ALNDFSNSGSDVLYQPPQTSITSAVLQ/SGFRKMAFPS-NH2 as substrate preincubated for 5 mins followed by compound addition and measured after 20 mins by FRET analysis
[20] = biological target: T1, Replicase polyprotein 1ab; test: Inhibition of full length GST-tagged SARS-CoV-2 Main protease expressed in Escherichia coli
[21] = biological target: T1, Replicase polyprotein 1ab; test: Inhibition of recombinant N-terminal SARS-CoV-2 Main protease expressed in Escherichia coli using MCA-AVLQSGFR-Lys(Dnp)-Lys-NH2 as substrate incubated for 1 hr by FRET assay
[22] = system: SARS-CoV-2; format: functional, organism-based; conditions: Severe acute respiratory syndrome coronavirus 2, Vero C1008; remark: listed apart in the source

## C[C@H](NC(=O)[C@@H](c1cccnc1)N(C(=O)C(Cl)Cl)c1ccc(-c2ccccc2)cc1)c1ccccc1
[1]
  EC50: 2050 nM
[2]
  EC50: 900 nM

## COc1cccc(-n2[se]c3ccccc3c2=O)c1
[3]
  IC50: 4080 nM

## Nc1cccn([C@@H](CC2CC2)C(=O)N[C@@H](C[C@@H]2CCNC2=O)C(=O)C(=O)NCc2ccccc2)c1=O
[4]
  IC50: 4000 nM

## C[C@H](NC(=O)[C@@H](c1cccnc1)N(C(=O)c1ccco1)c1ccc(-c2ccccc2)cc1)c1ccccc1
[5]
  Ki: 101000 nM

## O=C(NCc1cccs1)[C@@H]1CN(C(=O)c2cccnc2)CCN1c1ccc(Cl)c(Cl)c1
[6]
  EC50: 1100 nM

## Nc1ccc2cc3ccc(N)cc3nc2c1 [PROFLAVINE SULFATE]
[7]
  IC50: 2070 nM

## O=C(Sc1ncccn1)c1cc2ccccc2[nH]1
[4]
  IC50: 61 nM
[8]
  IC50: 302 nM

## O=C[C@H](C[C@@H]1CCNC1=O)NC(=O)[C@H](CC1CCCCC1)NC(=O)c1cc2ccccc2[nH]1
[9]
  CL/F: 17.4 mL/min/kg

## CC(C)(C)NC(=O)N[C@H](C(=O)N1C[C@H]2[C@@H]([C@H]1C(=O)NC(CC1CCC1)C(=O)C(N)=O)C2(C)C)C(C)(C)C (stereo partly drawn) [BOCEPREVIR]
[10]
  IC50: 4130 nM

## C[C@H](NC(=O)OCc1ccccc1)C(=O)N[C@@H](C)C(=O)NN(CC(N)=O)C(=O)/C=C/C(=O)c1ccccc1
[11]
  IC50: 490 nM

## CCCCCCCCCC(=O)N[C@H]1[C@H](Oc2c3cc4cc2Oc2ccc(cc2Cl)[C@@H](O[C@@H]2O[C@H](CO)[C@@H](O)[C@H](O)[C@H]2NC(C)=O)[C@@H]2NC(=O)[C@H](NC(=O)[C@@H]4NC(=O)[C@H]4NC(=O)[C@H](Cc5ccc(c(Cl)c5)O3)NC(=O)[C@H](N)c3ccc(O)c(c3)Oc3cc(O)cc4c3)c3ccc(O)c(c3)-c3c(O[C@H]4O[C@H](CO)[C@@H](O)[C@H](O)[C@@H]4O)cc(O)cc3[C@@H](C(=O)O)NC2=O)O[C@H](CO)[C@@H](O)[C@@H]1O [TEICOPLANIN A2-3]
[12]
  IC50: 1500 nM

## C[C@H](NC(=O)[C@@H](c1cccnc1)N(C(=O)C(Br)(Br)Br)c1ccc(-c2ccccc2)cc1)c1ccccc1
[1]
  EC50: 2150 nM
[2]
  EC50: 580 nM

## O=c1c2ccccc2[se]n1-c1cccc(C(F)(F)F)c1
[13]
  EC50: 840 nM

## CC(C)(C)c1ccc(N(C(=O)CCl)C(C(=O)NC2CCCCC2)c2cccnc2)cc1 (stereo not drawn)
[14]
  IC50: 410 nM

## CC(C)(C)OC(=O)CC[C@H](NC(=O)CNC(=O)OC(C)(C)C)C(=O)COC(=O)c1c(Cl)cccc1Cl
[11]
  IC50: 2990 nM

## O=C[C@H](C[C@@H]1CCNC1=O)NC(=O)[C@@H]1[C@H]2CCC[C@H]2CN1C(=O)COc1ccc(Cl)cc1Cl
[15]
  half-life: 3.88 h
[16]
  clearance: 17.1 mL/min/kg
[17]
  bioavailability: 76.2%

## PHENYLMERCURIC ACETATE
[18]
  IC50: 400 nM

## CC1(C)[C@H](C(=O)OCc2ccc([N+](=O)[O-])cc2)C2C(=O)C(Br)(Br)[C@H]2S1(=O)=O (stereo partly drawn)
[19]
  IC50: 600 nM

## CC(C)C[C@H](NC(=O)[C@@H](NC(=O)c1ccc(Cl)cc1)C(C)C)C(=O)N[C@H](C=O)C[C@@H]1CCCNC1=O
[20]
  IC50: 140 nM

## O=C[C@H](C[C@@H]1CCNC1=O)NC(=O)[C@@H]1[C@H]2CCC[C@H]2CN1C(=O)CCc1cc(F)cc(F)c1
[21]
  IC50: 7 nM

## Cn1sc(=O)n(Cc2ccccc2)c1=O
[22]
  IC50: 670 nM

## C=CS(=O)(=O)N(c1ccc(C(C)(C)C)cc1)C(C(=O)NC1CCCCC1)c1cccnc1 (stereo not drawn)
[14]
  IC50: 420 nM

## CC1(C)[C@H](C(=O)OCc2ccccc2)C2C(=O)C(Br)(Br)[C@H]2S1(=O)=O (stereo partly drawn)
[19]
  IC50: 700 nM
